Source: US7662832B2, “Pyrrolo[2,3-c]pyridine derivatives and processes for the preparation thereof” (priority 2004, dated 2010)
pIC50: −log10 of the molar value. Counter-ions that a name gives are not always drawn.

What follows are molecules tested against Proton Pump (H^+/K^+-ATPase) (Sus scrofa, UniProt P19156) (assay: Inhibitory effects on proton pump (H^+/K^+-ATPase) activity). Details: hog gastric vesicles; K^+ stimulated H^+/K^+-ATPase activity; 30 minutes at 37° C.
Format: biochemical

Sequence of Proton Pump (H^+/K^+-ATPase) (P19156 2-1034 limits assumed): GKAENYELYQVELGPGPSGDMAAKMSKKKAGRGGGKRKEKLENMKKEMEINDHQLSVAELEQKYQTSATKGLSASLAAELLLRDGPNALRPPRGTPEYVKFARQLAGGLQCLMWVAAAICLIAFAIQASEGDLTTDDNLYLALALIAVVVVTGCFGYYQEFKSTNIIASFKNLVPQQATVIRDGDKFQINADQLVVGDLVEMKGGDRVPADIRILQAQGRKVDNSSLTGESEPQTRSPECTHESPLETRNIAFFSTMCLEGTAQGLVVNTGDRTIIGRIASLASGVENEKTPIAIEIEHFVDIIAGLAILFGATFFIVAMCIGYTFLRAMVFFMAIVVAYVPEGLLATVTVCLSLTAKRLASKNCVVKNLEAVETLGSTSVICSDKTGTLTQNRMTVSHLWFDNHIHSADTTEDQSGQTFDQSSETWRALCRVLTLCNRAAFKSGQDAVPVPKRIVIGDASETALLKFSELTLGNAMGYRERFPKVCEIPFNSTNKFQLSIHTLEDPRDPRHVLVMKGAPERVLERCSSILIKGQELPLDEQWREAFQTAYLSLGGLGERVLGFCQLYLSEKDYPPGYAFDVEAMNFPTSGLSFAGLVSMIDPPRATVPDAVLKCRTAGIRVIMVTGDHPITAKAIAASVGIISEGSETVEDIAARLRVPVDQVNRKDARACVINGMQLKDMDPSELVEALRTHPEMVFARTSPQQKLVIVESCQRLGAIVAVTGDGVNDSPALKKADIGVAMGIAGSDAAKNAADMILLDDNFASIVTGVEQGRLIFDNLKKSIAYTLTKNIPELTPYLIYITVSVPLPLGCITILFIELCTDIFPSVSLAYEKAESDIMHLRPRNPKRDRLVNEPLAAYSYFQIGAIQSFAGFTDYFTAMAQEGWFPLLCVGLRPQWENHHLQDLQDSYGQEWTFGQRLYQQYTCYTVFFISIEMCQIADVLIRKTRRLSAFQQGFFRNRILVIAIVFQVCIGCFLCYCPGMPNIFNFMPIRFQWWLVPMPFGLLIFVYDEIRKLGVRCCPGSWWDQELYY
Sequence of Proton Pump (H^+/K^+-ATPase) (P18434 whole entry partner): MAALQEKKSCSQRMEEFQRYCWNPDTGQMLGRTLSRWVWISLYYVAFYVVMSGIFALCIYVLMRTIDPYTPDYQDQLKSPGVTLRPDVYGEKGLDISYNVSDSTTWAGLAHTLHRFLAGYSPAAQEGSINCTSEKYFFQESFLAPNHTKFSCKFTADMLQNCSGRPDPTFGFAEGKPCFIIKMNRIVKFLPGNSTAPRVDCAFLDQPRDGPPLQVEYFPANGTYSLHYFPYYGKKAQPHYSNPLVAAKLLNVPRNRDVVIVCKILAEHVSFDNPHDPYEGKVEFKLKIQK

Q: How did the pIC50 turn out when `Cc1c(C)n(CCC(C)Cl)c2c(N3CCc4ccccc4C3)nccc12` (stereo not shown) [Example 513, 1-(3-chlorobutyl)-7-(1,2,3,4-tetrahydroisoquinolin-2-yl)-2,3-dimethyl-1H-pyrrolo[2,3-c]pyridine hydrochloride] was run?
A: 7.13

Q: With `Cc1c(C)n(Cc2ccc(Cl)s2)c2c(N3CCc4ccccc4C3)nccc12` [Example 514, 1-(5-chlorothiophene-2-ylmethyl)-7-(1,2,3,4-tetrahydroisoquinolin-2-yl)-2,3-dimethyl-1H-pyrrolo[2,3-c]pyridine hydrochloride] as the molecule, how does the pIC50 read?
A: 6.70

Q: `Cc1cccc(Cn2c(C)c(C)c3ccnc(N4CCc5ccccc5C4)c32)c1` [Example 515, 1-(3-methylbenzyl)-7-(1,2,3,4-tetrahydroisoquinolin-2-yl)-2,3-dimethyl-1H-pyrrolo[2,3-c]pyridine hydrochloride] was tested. Which pIC50 did it give?
A: 6.70

Q: How did the pIC50 turn out when `Cc1c(C)n(Cc2cccnc2)c2c(N3CCc4ccccc4C3)nccc12` [Example 516, 1-(pyridin-3-ylmethyl)-7-(1,2,3,4-tetrahydroisoquinolin-2-yl)-2,3-dimethyl-1H-pyrrolo[2,3-c]pyridine hydrochloride] was run?
A: 6.91

Q: `Cc1c(C)n(Cc2ccccn2)c2c(N3CCc4ccccc4C3)nccc12` [Example 517, 1-(pyridin-2-ylmethyl)-7-(1,2,3,4-tetrahydroisoquinolin-2-yl)-2,3-dimethyl-1H-pyrrolo[2,3-c]pyridine hydrochloride] was tested. Which pIC50 did it give?
A: 7.70

Q: `Cc1c(C)n(Cc2ccncc2)c2c(N3CCc4ccccc4C3)nccc12` [Example 518, 1-(pyridin-4-ylmethyl)-7-(1,2,3,4-tetrahydroisoquinolin-2-yl)-2,3-dimethyl-1H-pyrrolo[2,3-c]pyridine hydrochloride] was tested. Which pIC50 did it give?
A: 6.75

Q: How did the pIC50 turn out when `C=C=Cn1c(C)c(C)c2ccnc(N3CCc4ccccc4C3)c21` [Example 526, 1-(propa-1,2-dienyl)-7-(1,2,3,4-tetrahydroisoquinolin-2-yl)-2,3-dimethyl-1H-pyrrolo[2,3-c]pyridine hydrochloride] was run?
A: 6.75

Q: With `C=CCn1c(C)c(C)c2ccnc(N3CCc4ccc(Cl)cc4C3C)c21` (stereo not shown) [Example 531, 7-chloro-2-(1-allyl-2,3-dimethyl-1H-pyrrolo[2,3-c]pyridin-7-yl)-1-methyl-1,2,3,4-tetrahydroisoquinoline hydrochloride] as the molecule, how does the pIC50 read?
A: 6.72

Q: `CC(C)=CCn1c(C)c(C)c2ccnc(N3CCc4ccc(Cl)cc4C3C)c21` (stereo not shown) [Example 534, 7-chloro-2-[2,3-dimethyl-1-(3-methylbut-2-enyl)-1H-pyrrolo[2,3-c]pyridin-7-yl]-1-methyl-1,2,3,4-tetrahydroisoquinoline hydrochloride] was tested. Which pIC50 did it give?
A: 6.40

Q: How did the pIC50 turn out when `Cc1nc(Cn2c(C)c(C)c3ccnc(N4CCc5ccc(Cl)cc5C4C)c32)cs1` (stereo not shown) [Example 538, 7-chloro-2-[2,3-dimethyl-1-(2-methylthiazol-4-ylmethyl)-1H-pyrrolo[2,3-c]pyridin-7-yl]-1-methyl-1,2,3,4-tetrahydroisoquinoline hydrochloride] was run?
A: 6.61

Q: With `Cc1c(C)n(Cc2cccc(F)c2)c2c(N3CCc4ccc(Cl)cc4C3C)nccc12` (stereo not shown) [Example 539, 7-chloro-2-[1-(3-fluorobenzyl)-2,3-dimethyl-1H-pyrrolo[2,3-c]pyridin-7-yl]-1-methyl-1,2,3,4-tetrahydroisoquinoline hydrochloride] as the molecule, how does the pIC50 read?
A: 6.60

Q: With `Cc1[nH]c2c(N3CCc4ccc(F)cc4C3C)nccc2c1C` (stereo not shown) [Example 541, 7-fluoro-2-(2,3-dimethyl-1H-pyrrolo[2,3-c]pyridin-7-yl)-1-methyl-1,2,3,4-tetrahydroisoquinoline hydrochloride] as the molecule, how does the pIC50 read?
A: 6.46

Q: How did the pIC50 turn out when `Cc1c(C)n(Cc2cccc(F)c2)c2c(N3CCc4ccc(F)cc4C3C)nccc12` (stereo not shown) [Example 542, 7-fluoro-2-[1-(3-fluorobenzyl)-2,3-dimethyl-1H-pyrrolo[2,3-c]pyridin-7-yl]-1-methyl-1,2,3,4-tetrahydroisoquinoline hydrochloride] was run?
A: 6.82

Q: `CCn1c(C)c(C)c2ccnc(N3CCc4ccc(F)cc4C3C)c21` (stereo not shown) [Example 543, 2-(1-ethyl-2,3-dimethyl-1H-pyrrolo[2,3-c]pyridin-7-yl)-7-fluoro-1-methyl-1,2,3,4-tetrahydroisoquinoline hydrochloride] was tested. Which pIC50 did it give?
A: 6.96

Q: With `C=CCn1c(C)c(C)c2ccnc(N3CCc4ccc(F)cc4C3C)c21` (stereo not shown) [Example 544, 2-(1-allyl-2,3-dimethyl-1H-pyrrolo[2,3-c]pyridin-7-yl)-7-fluoro-1-methyl-1,2,3,4-tetrahydroisoquinoline hydrochloride] as the molecule, how does the pIC50 read?
A: 7.66

Q: `CC(C)=CCn1c(C)c(C)c2ccnc(N3CCc4ccc(F)cc4C3C)c21` (stereo not shown) [Example 545, 2-[2,3-dimethyl-1-(3-methylbut-2-enyl)-1H-pyrrolo[2,3-c]pyridin-7-yl]-7-fluoro-1-methyl-1,2,3,4-tetrahydroisoquinoline hydrochloride] was tested. Which pIC50 did it give?
A: 6.72

Q: How did the pIC50 turn out when `COCCn1c(C)c(C)c2ccnc(N3CCc4ccc(F)cc4C3C)c21` (stereo not shown) [Example 546, 7-fluoro-2-[1-(2-methoxyethyl)-2,3-dimethyl-1H-pyrrolo[2,3-c]pyridin-7-yl]-1-methyl-1,2,3,4-tetrahydroisoquinoline hydrochloride] was run?
A: 6.60

Q: With `Cc1c(C)n(Cc2ccccc2)c2c(N3CCc4ccc(F)cc4C3C)nccc12` (stereo not shown) [Example 547, 2-(1-benzyl-2,3-dimethyl-1H-pyrrolo[2,3-c]pyridin-7-yl)-7-fluoro-1-methyl-1,2,3,4-tetrahydroisoquinoline hydrochloride] as the molecule, how does the pIC50 read?
A: 6.89

Q: How did the pIC50 turn out when `Cc1ccc(Cn2c(C)c(C)c3ccnc(N4CCc5ccc(F)cc5C4C)c32)cc1` (stereo not shown) [Example 548, 2-[2,3-dimethyl-1-(4-methylbenzyl)-1H-pyrrolo[2,3-c]pyridin-7-yl]-7-fluoro-1-methyl-1,2,3,4-tetrahydroisoquinoline hydrochloride] was run?
A: 6.39

Q: How did the pIC50 turn out when `Cc1nc(Cn2c(C)c(C)c3ccnc(N4CCc5ccc(F)cc5C4C)c32)cs1` (stereo not shown) [Example 551, 2-[2,3-dimethyl-1-(2-methylthiazol-4-ylmethyl)-1H-pyrrolo[2,3-c]pyridin-7-yl]-7-fluoro-1-methyl-1,2,3,4-tetrahydroisoquinoline hydrochloride] was run?
A: 6.49

Q: How did the pIC50 turn out when `Cc1[nH]c2c(N3CCc4ccccc4C3C)nccc2c1C` (stereo not shown) [Example 552, 2-(2,3-dimethyl-1H-pyrrolo[2,3-c]pyridin-7-yl)-1-methyl-1,2,3,4-tetrahydroisoquinoline hydrochloride] was run?
A: 7.44

Q: `CCn1c(C)c(C)c2ccnc(N3CCc4ccccc4C3C)c21` (stereo not shown) [Example 554, 2-(1-ethyl-2,3-dimethyl-1H-pyrrolo[2,3-c]pyridin-7-yl)-1-methyl-1,2,3,4-tetrahydroisoquinoline hydrochloride] was tested. Which pIC50 did it give?
A: 7.23

Q: `COCCn1c(C)c(C)c2ccnc(N3CCc4ccccc4C3C)c21` (stereo not shown) [Example 555, 2-[1-(2-methoxyethyl)-2,3-dimethyl-1H-pyrrolo[2,3-c]pyridin-7-yl]-1-methyl-1,2,3,4-tetrahydroisoquinoline hydrochloride] was tested. Which pIC50 did it give?
A: 6.64

Q: How did the pIC50 turn out when `Cc1c(C)n(Cc2ccccc2)c2c(N3CCc4ccccc4C3C)nccc12` (stereo not shown) [Example 556, 2-(1-benzyl-2,3-dimethyl-1H-pyrrolo[2,3-c]pyridin-7-yl)-1-methyl-1,2,3,4-tetrahydroisoquinoline hydrochloride] was run?
A: 6.89

Q: With `COc1ccc(Cn2c(C)c(C)c3ccnc(N4CCc5ccccc5C4C)c32)cc1` (stereo not shown) [Example 558, 2-[1-(4-methoxybenzyl)-2,3-dimethyl-1H-pyrrolo[2,3-c]pyridin-7-yl]-1-methyl-1,2,3,4-tetrahydroisoquinoline hydrochloride] as the molecule, how does the pIC50 read?
A: 6.37

Q: `Cc1nc(Cn2c(C)c(C)c3ccnc(N4CCc5ccccc5C4C)c32)cs1` (stereo not shown) [Example 559, 2-[2,3-dimethyl-1-(2-methylthiazol-4-ylmethyl)-1H-pyrrolo[2,3-c]pyridin-7-yl]-1-methyl-1,2,3,4-tetrahydroisoquinoline hydrochloride] was tested. Which pIC50 did it give?
A: 6.80

Q: With `Cc1[nH]c2c(N3CCc4ccccc4C3C)nccc2c1C` (stereo not shown) [Example 560, 2-(2,3-dimethyl-1H-pyrrolo[2,3-c]pyridin-7-yl)-1-methyl-1,2,3,4-tetrahydroisoquinoline sodium] as the molecule, how does the pIC50 read?
A: 7.77

Q: With `Cc1[nH]c2c(N3CCc4cc(F)ccc4C3C)nccc2c1C` (stereo not shown) [Example 561, 6-fluoro-2-(2,3-dimethyl-1H-pyrrolo[2,3-c]pyridin-7-yl)-1-methyl-1,2,3,4-tetrahydroisoquinoline hydrochloride] as the molecule, how does the pIC50 read?
A: 7.19

Q: `CCn1c(C)c(C)c2ccnc(N3CCc4cc(F)ccc4C3C)c21` (stereo not shown) [Example 562, 2-(1-ethyl-2,3-dimethyl-1H-pyrrolo[2,3-c]pyridin-7-yl)-6-fluoro-1-methyl-1,2,3,4-tetrahydroisoquinoline hydrochloride] was tested. Which pIC50 did it give?
A: 7.24

Q: With `COCCn1c(C)c(C)c2ccnc(N3CCc4cc(F)ccc4C3C)c21` (stereo not shown) [Example 564, 6-fluoro-2-[1-(2-methoxyethyl)-2,3-dimethyl-1H-pyrrolo[2,3-c]pyridin-7-yl]-1-methyl-1,2,3,4-tetrahydroisoquinoline hydrochloride] as the molecule, how does the pIC50 read?
A: 7.09

Q: How did the pIC50 turn out when `Cc1c(C)n(Cc2cccc(F)c2)c2c(N3CCc4cc(F)ccc4C3C)nccc12` (stereo not shown) [Example 565, 6-fluoro-2-[1-(3-fluorobenzyl)-2,3-dimethyl-1H-pyrrolo[2,3-c]pyridin-7-yl]-1-methyl-1,2,3,4-tetrahydroisoquinoline hydrochloride] was run?
A: 6.48

Q: With `COc1ccc(Cn2c(C)c(C)c3ccnc(N4CCc5cc(F)ccc5C4C)c32)cc1` (stereo not shown) [Example 566, 6-fluoro-2-[1-(4-methoxybenzyl)-2,3-dimethyl-1H-pyrrolo[2,3-c]pyridin-7-yl]-1-methyl-1,2,3,4-tetrahydroisoquinoline hydrochloride] as the molecule, how does the pIC50 read?
A: 6.52

Q: How did the pIC50 turn out when `CCn1c(C)c(C)c2ccnc(N3CCc4ccccc4C3C3CC3)c21` (stereo not shown) [Example 569, 1-cyclopropyl-2-(1-ethyl-2,3-dimethyl-1H-pyrrolo[2,3-c]pyridin-7-yl)-1,2,3,4-tetrahydroisoquinoline hydrochloride] was run?
A: 6.30

Q: With `C=CCn1c(C)c(C)c2ccnc(N3CCc4ccccc4C3C3CC3)c21` (stereo not shown) [Example 570, 2-(1-allyl-2,3-dimethyl-1H-pyrrolo[2,3-c]pyridin-7-yl)-1-cyclopropyl-1,2,3,4-tetrahydroisoquinoline hydrochloride] as the molecule, how does the pIC50 read?
A: 6.92
